The results in this text go back to ChEMBL document CHEMBL5316374, “Forrestiacids E-K: Further [4 + 2]-Type Triterpene-Diterpene Hybrids as Potential ACL Inhibitors from the Vulnerable Conifer Pseudotsuga forrestii” (J Nat Prod, 2023).

The IC50 is the point on the concentration scale where inhibition reaches its midpoint.

Bounds are passed on as bounds.

This assay concerns the target T1, ATP-citrate synthase (Homo sapiens, UniProt P53396).
T1 sequence (P53396 whole entry): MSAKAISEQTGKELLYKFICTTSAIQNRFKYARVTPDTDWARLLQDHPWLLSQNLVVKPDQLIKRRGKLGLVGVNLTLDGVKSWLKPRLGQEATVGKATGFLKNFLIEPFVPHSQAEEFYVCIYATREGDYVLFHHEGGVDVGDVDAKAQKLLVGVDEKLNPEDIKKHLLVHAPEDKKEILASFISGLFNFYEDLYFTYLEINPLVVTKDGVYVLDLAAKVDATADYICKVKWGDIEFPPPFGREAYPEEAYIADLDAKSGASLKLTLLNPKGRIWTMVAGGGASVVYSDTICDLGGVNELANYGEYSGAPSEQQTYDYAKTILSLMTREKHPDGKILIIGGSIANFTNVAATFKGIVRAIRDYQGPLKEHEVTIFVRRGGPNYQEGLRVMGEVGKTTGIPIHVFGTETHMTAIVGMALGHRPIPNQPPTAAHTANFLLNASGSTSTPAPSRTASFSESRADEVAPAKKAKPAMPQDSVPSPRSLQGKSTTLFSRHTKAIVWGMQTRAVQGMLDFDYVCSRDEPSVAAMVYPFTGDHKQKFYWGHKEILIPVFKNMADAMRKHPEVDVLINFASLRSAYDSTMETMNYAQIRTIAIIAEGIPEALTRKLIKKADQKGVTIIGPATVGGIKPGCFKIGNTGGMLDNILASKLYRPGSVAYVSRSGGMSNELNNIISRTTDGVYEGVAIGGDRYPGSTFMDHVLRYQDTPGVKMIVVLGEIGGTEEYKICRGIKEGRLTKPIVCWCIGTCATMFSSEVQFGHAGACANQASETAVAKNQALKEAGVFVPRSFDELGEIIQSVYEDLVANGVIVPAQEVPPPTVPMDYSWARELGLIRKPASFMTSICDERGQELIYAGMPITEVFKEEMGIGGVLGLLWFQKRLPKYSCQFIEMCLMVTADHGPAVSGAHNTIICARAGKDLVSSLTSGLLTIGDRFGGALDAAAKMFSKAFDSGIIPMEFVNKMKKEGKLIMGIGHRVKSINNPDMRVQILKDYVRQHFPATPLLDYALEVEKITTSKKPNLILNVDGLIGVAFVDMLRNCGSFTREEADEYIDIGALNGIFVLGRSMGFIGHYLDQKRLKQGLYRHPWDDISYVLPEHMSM
The experiment in a line: Inhibition of ACL (unknown origin) incubated for 30 mins in presence of ATP by luminescence based ADP-Glo kinase assay.
As to `COc1ccc(-c2ccccc2)cc1NS(=O)(=O)c1cc(Cl)cc(Cl)c1O`, the half-inhibitory concentration (IC50) came to 0.46 µM. Take `C=C1CC[C@@](C)([C@H](C)CC(=O)C[C@@]2(C(=O)O)C[C@H]3C[C@@H]4[C@@]5(C)CCC[C@@](C)(C(=O)O)[C@@H]5CC[C@]42C=C3C(C)C)[C@@]12CCC1=C2CC[C@@H]2[C@@H]1CCC(=O)C2(C)C`: the IC50 stood at 3.3 µM. The result for `C=C1CC[C@@](C)([C@H](C)CC(=O)C[C@](C)(C(=O)O)[C@]2(C(=C)C)C=C3CC[C@@H]4[C@](C)(CCC[C@@]4(C)C(=O)O)[C@H]3CC2)[C@@]12CCC1=C2CC[C@H]2C(C)(C)C(=O)CC[C@]12C` reads 11 µM; that for `CC(C)C1=CC[C@H]2C(=C1)CC[C@@H]1[C@]2(C)CCC[C@@]1(C)C(=O)O`, greater than 40 µM. The result for `C=C1CC[C@@](C)([C@H](C)CC(=O)C[C@]2(C(=O)O)C[C@H]3C[C@@H]4[C@@]5(C)CCC[C@@](C)(C(=O)O)[C@@H]5CC[C@]42C=C3C(C)C)[C@@]12CCC1=C2CC[C@@H]2[C@@H]1CCC(=O)C2(C)C` reads 1.8 µM.

Consider `C=C1CC[C@@](C)([C@H](C)CC(=O)[C@@H]2[C@H]3C[C@@H]4[C@@]5(C)CCC[C@@](C)(C(=O)O)[C@@H]5CC[C@@]4(C=C3C(C)C)[C@@]2(C)C(=O)O)[C@@]12CCC1=C2CC[C@H]2C(C)(C)C(=O)CC[C@]12C`, for which the IC50 was found to be 3.6 µM. The result for `C=C1CC[C@@](C)([C@H](C)CC(=O)C[C@]2(C(=O)O)C[C@H]3C[C@@H]4[C@@]5(C)CCC[C@@](C)(C(=O)O)[C@@H]5CC[C@]42C=C3C(C)C)[C@@]12CCC1=C2CC[C@@H]2[C@@H]1CC[C@H](O)C2(C)C` reads 7.1 µM; that for `CC(C)C1=C[C@@]23CC[C@@H]4[C@](C)(CCC[C@@]4(C)C(=O)O)[C@H]2C[C@@H]1C[C@@]3(CC(=O)C[C@@H](C)[C@H]1CC[C@@]2(C)C3=C(CC[C@]12C)[C@H]1CCC(=O)C(C)(C)[C@@H]1CC3)C(=O)O`, 2.6 µM. Take `C=C1CC[C@@](C)([C@H](C)CC(=O)[C@H]2[C@H]3C[C@@H]4[C@@]5(C)CCC[C@@](C)(C(=O)O)[C@@H]5CC[C@@]4(C=C3C(C)C)[C@]2(C)C(=O)O)[C@@]12CCC1=C2CC[C@H]2C(C)(C)C(=O)CC[C@]12C`: the IC50 is 4.1 µM. For the molecule `CC(C)C1=C[C@@]23CC[C@@H]4[C@](C)(CCC[C@@]4(C)C(=O)O)[C@H]2C[C@@H]1[C@H](C(=O)C[C@@H](C)[C@H]1CC[C@@]2(C)C4=C(CC[C@]12C)[C@H]1CCC(=O)C(C)(C)[C@@H]1CC4)[C@@]3(C)C(=O)O`, the concentration for half-maximal inhibition (IC50) was found to be 6.2 µM.

For `C=C1CC[C@@H]([C@H](C)CC(=O)/C=C(\C)C(=O)O)[C@@]12CCC1=C2CC[C@H]2C(C)(C)C(=O)CC[C@]12C`, the IC50 was found to be 34.9 µM. As for `C=C1CC[C@@](C)([C@H](C)CC(=O)C[C@@](C)(C(=O)O)[C@]2(C(=C)C)C=C3CC[C@@H]4[C@](C)(CCC[C@@]4(C)C(=O)O)[C@H]3CC2)[C@@]12CCC1=C2CC[C@H]2C(C)(C)C(=O)CC[C@]12C`, the IC50 was 22.8 µM. As for `C=C1CC[C@@](C)([C@H](C)CC(=O)[C@H]2[C@H]3C[C@@H]4[C@@]5(C)CCC[C@@](C)(C(=O)O)[C@@H]5CC[C@]45C(OC(=O)[C@]25C)C3=C(C)C)[C@@]12CCC1=C2CC[C@H]2C(C)(C)C(=O)CC[C@]12C`, the concentration for half-maximal inhibition (IC50) was 10.8 µM.
